From patent US8557832B2, “Aryl methyl benzoquinazolinine M1 receptor positive allosteric modulators” (Merck Sharp & Dohme Corp., priority 2008, dated 2013)

Molecular target: T1, acetylcholine muscarinic M1 receptor (Homo sapiens, UniProt P11229)
T1 construct: expressed in transfected cells; host or cells: CHOnfat (CHO cells; also called CHOK1/hM1)
T1 sequence (P11229 1-460): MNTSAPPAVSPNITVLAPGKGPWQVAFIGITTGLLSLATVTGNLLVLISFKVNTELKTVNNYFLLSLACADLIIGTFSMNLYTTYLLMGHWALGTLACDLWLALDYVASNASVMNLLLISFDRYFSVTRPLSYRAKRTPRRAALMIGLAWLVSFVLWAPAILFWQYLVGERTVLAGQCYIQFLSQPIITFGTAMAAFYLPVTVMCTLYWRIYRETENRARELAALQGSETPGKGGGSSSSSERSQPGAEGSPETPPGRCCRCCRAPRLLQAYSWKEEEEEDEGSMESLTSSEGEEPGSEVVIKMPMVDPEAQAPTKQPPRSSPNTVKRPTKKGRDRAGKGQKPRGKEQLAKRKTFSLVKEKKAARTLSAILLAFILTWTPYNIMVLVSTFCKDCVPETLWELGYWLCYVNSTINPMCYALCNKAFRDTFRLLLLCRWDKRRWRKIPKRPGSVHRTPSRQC
Assay: muscarinic FLIPR assay: potentiation of acetylcholine (EC20)-stimulated intracellular Ca2+ in CHOnfat/hM1 cells
Format: cell-based
Settings: 4 min preincubation, then EC20 acetylcholine (3 nM final), read-out: IP Value (inflection point)
Description: The assay studies the effect of one or several concentrations of test compounds on basal or acetylcholine-stimulated Ca^2+ levels using FLIPR.
Compounds are prepared and subjected to a preincubation period of 4 min. Thereafter, a single EC20 concentration of acetylcholine is added to each well (3 nM final). The intracellular Ca^2+ level of each sample is measured and compared to an acetylcholine control to determine any modulatory activity.
Cells: CHOnfat/hM1, hM2, hM3 or hM4 cells are plated 24 hr before the assay at a density of 18,000 cells/well (100 μL) in a 384 well plate. CHOnfat/hM1 and CHOnfat/hM3 Growth Medium: 90% DMEM (Hi Glucose); 10% HI FBS; 2 mM L-glutamine; 0.1 mM NEAA; Pen-Strep; and 1 mg/ml Geneticin, are added. For M2Gqi5CHOnfat and M4Gqi5CHOnfat cells, an additional 600 ug/ml hygromycin is added.
Equipment: 384 well plate, 120 μL addition plate; 96-well Whatman 2 ml Uniplate Incubator, 37° C., 5% CO2; Skatron EMBLA-384 Plate Washer; Multimek Pipetting System; Genesis Freedom 200 System; Mosquito System; Temo Nanoliter Pipetting System; and FLIPR^384 Fluorometric Imaging Plate Reader System are used.
Buffers. Assay Buffer: Hanks Balanced Salt Solution, with 20 mM Hepes, 2.5 mM Probenecid (Sigma P-8761) first dissolved in 1 N NaOH, 1% Bovine Serum Albumin (Sigma A-9647). Dye Loading Buffer: Assay Buffer plus 1% Fetal Bovine Serum and Fluo-4AM/Pluronic Acid Mixture. 2 mM Fluo-4AM ester stock in DMSO (Molecular Probes F-14202) Concentration of 2 μM in buffer for a final concentration of 1 μM in Assay. 20% Pluronic Acid Solution stock, with concentration of 0.04% in Buffer, 0.02% in Assay.
65 μL of 2 mM Fluo-4AM are mixed with 130 μL of 20% Pluronic Acid. The resulting solution and 650 μL FBS is added to the assay buffer for a total volume of 65 mL. Positive Controls: 4-Br-A23187: 10 mM in DMSO; final concentration 10 μM. Acetylcholine: 10 mM in water, working stock at both 20 μM and 30 μM in assay buffer, final concentration of 10 μM. This is used to check the maximum stimulation of the CHOK1/hM1 cells. 20 μM (2×) acetylcholine is added in the preincubation part of the assay, and the 30 μM (3×) stock is added in the second part. (EC20) Acetylcholine: 10 mM in water, working stock of 9 nM (3×), and final concentration in assay is 3 nM. This is used after the preincubation with test compounds. Addition of the EC20 Acetylcholine to each well with a test compound will ascertain any modulator activity. 24 wells contain 3 nM Acetylcholine alone as a control.
Determining Activity of Putative Compounds:
Screening Plate: Compounds are titrated in 96-well plates (columns 2-11), 100% DMSO, started at a concentration of 15 mM (150× stock concentration), and 3-fold serial dilutions using Genesis Freedom200 System. Four 96-well plates are combined into a 384-well plate using Mosquito Nanolitre Pipetting System by transferring 1 μl of serial diluted compounds to each well, and 1 mM acetylcholine (100× stock concentration) were added as a control. Using Temo, 49 μl assay buffer is added to each well of the 384-well plate right before assay.
In a 96-well Whatman 2 ml Uniplate, 9 nM Acetylcholine (3×) is pipetted into wells corresponding to the screening compounds, and into control wells. The 30 μM acetylcholine control (3×) is added into control wells, and the 3× agonist plate is transferred into a 384 well plate.
Cells are washed three times with 100 μL of buffer, leaving 30 μL of buffer in each well. Using Multimek, 30 μL of Dye Loading Buffer is added into each well and incubated at 37° C., 5% CO2 for up to one hr.
After 60 min, the cells are washed three times with 100 μL of buffer, leaving 30 μL of buffer in each well. The cell plate, screening plate, and agonist addition plates are placed on the platform in the FLIPR and the door closed. A signal test to check background fluorescence and basal fluorescence signal is performed. Laser intensity is adjusted if necessary. […]

SMILES | EC50
Cc1ccc(Cc2cc3c(=O)n([C@H]4CCCC[C@@H]4O)cnc3c3ccccc23)cn1 (racemic) [Example 1, rac-3-[trans-2-hydroxycyclohexyl]-6-[(6-methylpyridin-3-yl)methyl]benzo[h]quinazolin-4(3H)-one] | 51 nM
Cn1cc(-c2ccc(Cc3cc4c(=O)n([C@H]5CCCC[C@@H]5O)cnc4c4ccccc34)cn2)cn1 (racemic) [Example 5, rac-3-[trans-2-hydroxycyclohexyl]-6-{[6-(1-methyl-1H-pyrazol-4-yl)pyridine-3-yl]methyl}benzo[h]quinazolin-4(3H)-one] | 8 nM
O=c1c2cc(Cc3ccc(-n4cccn4)nc3)c3ccccc3c2ncn1[C@H]1CCCC[C@@H]1O (racemic) [Example 6, rac-3-[trans-2-hydroxycyclohexyl]-6-{[6-(1H-pyrazol-1-yl)pyridin-3-yl]methyl}benzo[h]quinazolin-4(3H)-one] | 31 nM
N#Cc1ccc(Cc2cc3c(=O)n([C@H]4CCCC[C@@H]4O)cnc3c3ccccc23)cn1 (racemic) [Example 7, rac-5-({3-[trans-2-hydroxycyclohexyl]-4-oxo-3,4-dihydrobenzo[h]quinazolin-6-yl}methyl)pyridine-2-carbonitrile] | 74 nM
CS(=O)(=O)c1ccc(Cc2cc3c(=O)n([C@H]4CCCC[C@@H]4O)cnc3c3ccccc23)cn1 (racemic) [Example 8, rac-3-[trans-2-hydroxycyclohexyl]-6-{[6-methylsulfonyl)pyridine-3-yl]methyl}benzo[h]quinazolin-4(3H)-one] | 93 nM
COc1ccc(Cc2cc3c(=O)n([C@H]4CCCC[C@@H]4O)cnc3c3ccccc23)cn1 (racemic) [Example 9, rac-3-[trans-2-hydroxycyclohexyl]-6-[(6-methoxypyridin-3-yl)methyl]benzo[h]quinazolin-4(3H)-one] | 73 nM
CC(=O)O[C@H]1CCCC[C@@H]1n1cnc2c(cc(Cc3ccc(Cl)nc3)c3ccccc32)c1=O (racemic) [Example 11, trans-2-[6-[(6-chloropyridin-3-yl)methyl]-4-oxobenzo[h]quinazolin-3(4H)-yl]cyclohexyl rac-acetate] | 3600 nM
O=c1c2cc(Cc3ccc(CO)nc3)c3ccccc3c2ncn1[C@H]1CCCC[C@@H]1O (racemic) [Example 15, rac-3-[trans-2-hydroxycyclohexyl]-6-{[6-(hydroxymethyl)pyridine-3-yl]methyl}benzo[h]quinazolin-4(3H)-one] | 24 nM
Cn1cc(Cc2cc3c(=O)n([C@H]4CCCC[C@@H]4O)cnc3c3ccccc23)ccc1=O (racemic) [Example 16, rac-3-[trans-2-hydroxycyclohexyl]-6-[(1-methyl-6-oxo-1,6-dihydropyridin-3-yl)methyl]benzo[h]quinazolin-4(3H)-one] | 84 nM
Cc1ccc(Cc2cc3c(=O)n([C@H]4CCCC[C@@H]4O)cnc3c3ccccc23)cn1 [Example 2, 3-[(1S,2S)-2-hydroxycyclohexyl]-6-[(6-methylpyridin-3-yl)methyl]benzo[h]quinazolin-4(3H)-one] | 21 nM
COc1ccc(Cc2cc3c(=O)n(-c4cc(C)[nH]n4)cnc3c3ccccc23)cc1 [Example 3] | 1800 nM
COc1ccc(Cc2cc3c(=O)n(-c4cccnc4)cnc3c3ccccc23)cc1 [Example 4, 6-(4-methoxybenzyl)-3-pyridin-3-ylbenzo[h]quinazolin-4(3H)-one] | 3500 nM
O=C1CCCCC1n1cnc2c(cc(Cc3ccc(Cl)nc3)c3ccccc32)c1=O (stereo not shown) [Example 10, 6-[(6-chloropyridin-3-yl)methyl]-3-(2-oxycyclohexyl)benzo[h]quinazolin-4(3H)-one] | 1300 nM
CC(=O)N[C@H]1CCCC[C@@H]1n1cnc2c(cc(Cc3ccc(Cl)nc3)c3ccccc32)c1=O [Example 12, N-{(1S,2S)-2-[6-[(6-chloropyridin-3-yl)methyl]-4-oxobenzo[h]quinazolin-3(4H)-yl]cyclohexyl}acetamide] | > 10000 nM
CC(C)c1ccc(Cc2cc3c(=O)n([C@H]4CCCC[C@@H]4O)cnc3c3ccccc23)cn1 [Example 13] | 21 nM
CC(C)(O)c1ccc(Cc2cc3c(=O)n([C@H]4CCCC[C@@H]4O)cnc3c3ccccc23)cn1 [Example 14] | 46 nM
Cc1ccc(Cc2cc3c(=O)n([C@H]4CCCC[C@@H]4O)cnc3c3ccccc23)c[n+]1[O-] [Example 17, 3-[(1S,2S)-2-hydroxycyclohexyl]-6-[(6-methyl-1-oxidopyridin-3-yl)methyl]benzo[h]quinazolin-4(3H)-one] | 63 nM
O=c1c2cc(Cc3ccccn3)c3ccccc3c2ncn1[C@H]1CCCC[C@@H]1O [Example 18, 3-[(1S,2S)-2-hydroxycyclohexyl]-6-(pyridin-2-ylmethyl)benzo[h]quinazolin-4(3H)-one] | 228 nM
Cc1nc2c(cc(Cc3ccc(Cl)nc3)c3ccccc32)c(=O)n1[C@H]1CCCC[C@@H]1O [Example 19, 6-[(6-chloropyridin-3-yl)methyl]-3-[(1S,2S)-2-hydroxycyclohexyl]-2-methylbenzo[h]quinazolin-4(3H)-one] | 1430 nM
